According to ChEMBL document CHEMBL2073936, “A novel human hepatic organic anion transporting polypeptide (OATP2). Identification of a liver-specific human organic anion transporting polypeptide and identification of rat and human hydroxymethylglutaryl-CoA reductase inhibitor transporters” (J Biol Chem, 1999):

Tests used:
Format in all cases: functional, cell-based
[1] = molecular target: T1, Solute carrier organic anion transporter family member 1A1 (Rattus norvegicus, UniProt P46720); assay: TP_TRANSPORTER: inhibition of Taurocholate uptake (Taurocholate: 0.5 uM, Pravastatin: 50 uM) in Oatp1-expressing 293c18 cells; conditions: human, hek293-ebna
T1 sequence (P46720 whole entry): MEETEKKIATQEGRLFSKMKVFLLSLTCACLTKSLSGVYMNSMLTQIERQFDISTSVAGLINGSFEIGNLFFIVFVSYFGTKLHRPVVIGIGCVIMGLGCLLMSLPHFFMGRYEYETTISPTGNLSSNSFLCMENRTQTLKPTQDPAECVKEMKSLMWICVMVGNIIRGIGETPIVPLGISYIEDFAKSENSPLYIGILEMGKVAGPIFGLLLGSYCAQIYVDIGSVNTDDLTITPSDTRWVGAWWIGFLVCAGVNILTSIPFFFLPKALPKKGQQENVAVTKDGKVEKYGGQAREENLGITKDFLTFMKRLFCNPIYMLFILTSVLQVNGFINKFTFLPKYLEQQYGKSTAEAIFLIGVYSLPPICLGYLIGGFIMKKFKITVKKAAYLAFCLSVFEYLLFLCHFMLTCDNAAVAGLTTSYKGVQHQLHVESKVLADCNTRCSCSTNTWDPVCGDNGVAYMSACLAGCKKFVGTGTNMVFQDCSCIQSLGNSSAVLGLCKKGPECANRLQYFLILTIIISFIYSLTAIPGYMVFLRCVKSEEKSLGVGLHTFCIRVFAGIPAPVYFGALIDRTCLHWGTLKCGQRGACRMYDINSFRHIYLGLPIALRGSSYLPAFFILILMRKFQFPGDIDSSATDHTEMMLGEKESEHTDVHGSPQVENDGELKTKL

[2] = molecular target: T2, Solute carrier organic anion transporter family member 1A4 (Rattus norvegicus, UniProt O35913); assay: TP_TRANSPORTER: uptake in Oatp2-expressing 293c18 cells; conditions: human, hek293-ebna
T2 sequence (O35913 whole entry): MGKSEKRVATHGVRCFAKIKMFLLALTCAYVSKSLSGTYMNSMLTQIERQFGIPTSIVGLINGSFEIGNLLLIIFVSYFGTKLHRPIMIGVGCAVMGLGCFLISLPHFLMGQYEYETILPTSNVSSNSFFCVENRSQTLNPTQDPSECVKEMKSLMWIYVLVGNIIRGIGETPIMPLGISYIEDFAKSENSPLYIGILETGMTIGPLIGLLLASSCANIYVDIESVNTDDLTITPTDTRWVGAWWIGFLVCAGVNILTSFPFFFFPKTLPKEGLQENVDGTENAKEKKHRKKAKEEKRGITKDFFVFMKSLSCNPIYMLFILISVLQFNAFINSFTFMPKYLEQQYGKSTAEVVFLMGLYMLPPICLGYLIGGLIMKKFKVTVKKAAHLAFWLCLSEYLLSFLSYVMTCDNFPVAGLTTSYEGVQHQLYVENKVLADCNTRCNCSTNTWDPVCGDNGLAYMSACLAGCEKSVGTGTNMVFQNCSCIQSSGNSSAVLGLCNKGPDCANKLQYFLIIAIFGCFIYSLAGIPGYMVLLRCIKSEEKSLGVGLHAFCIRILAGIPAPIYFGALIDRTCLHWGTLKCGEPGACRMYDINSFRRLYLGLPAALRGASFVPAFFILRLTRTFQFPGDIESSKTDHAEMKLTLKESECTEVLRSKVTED

[3] = molecular target: T3, Solute carrier organic anion transporter family member 1A2 (Homo sapiens, UniProt P46721); assay: TP_TRANSPORTER: uptake in OATP-A-expressing 293c18 cell; conditions: hek293-ebna
T3 sequence (P46721 whole entry): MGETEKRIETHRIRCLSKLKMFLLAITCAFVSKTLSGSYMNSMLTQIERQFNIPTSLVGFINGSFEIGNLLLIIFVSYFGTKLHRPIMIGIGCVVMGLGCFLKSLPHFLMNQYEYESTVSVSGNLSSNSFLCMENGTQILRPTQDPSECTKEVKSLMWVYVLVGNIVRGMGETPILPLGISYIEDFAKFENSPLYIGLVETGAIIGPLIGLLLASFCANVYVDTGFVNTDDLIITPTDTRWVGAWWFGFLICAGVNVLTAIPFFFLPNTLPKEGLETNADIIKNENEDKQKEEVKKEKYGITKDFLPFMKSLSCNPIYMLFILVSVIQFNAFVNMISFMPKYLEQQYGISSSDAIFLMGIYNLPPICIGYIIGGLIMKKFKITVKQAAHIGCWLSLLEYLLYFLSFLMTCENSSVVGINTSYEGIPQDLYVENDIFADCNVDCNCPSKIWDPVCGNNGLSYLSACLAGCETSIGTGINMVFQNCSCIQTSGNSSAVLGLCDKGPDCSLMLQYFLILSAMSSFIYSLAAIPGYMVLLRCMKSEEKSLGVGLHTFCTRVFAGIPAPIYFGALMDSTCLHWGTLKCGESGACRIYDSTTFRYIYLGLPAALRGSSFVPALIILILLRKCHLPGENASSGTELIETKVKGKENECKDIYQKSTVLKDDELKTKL

Activity [1]: inhibitor [+]
Activity [2]: is not a substrate [-]
Activity [3]: is not a substrate [-]
Compound: CC[C@H](C)C(=O)O[C@H]1C[C@H](O)C=C2C=C[C@H](C)[C@H](CC[C@@H](O)C[C@@H](O)CC(=O)O)[C@H]21 [PRAVASTATIN]
